Measured values taken from patent publication US20070270458A1 (priority 2003, published 2007).

Molecular target: α7 nAChR subtype (Rattus norvegicus, UniProt Q05941)
Format: binding

α7 nAChR subtype, sequence (Q05941 23-502 limits assumed): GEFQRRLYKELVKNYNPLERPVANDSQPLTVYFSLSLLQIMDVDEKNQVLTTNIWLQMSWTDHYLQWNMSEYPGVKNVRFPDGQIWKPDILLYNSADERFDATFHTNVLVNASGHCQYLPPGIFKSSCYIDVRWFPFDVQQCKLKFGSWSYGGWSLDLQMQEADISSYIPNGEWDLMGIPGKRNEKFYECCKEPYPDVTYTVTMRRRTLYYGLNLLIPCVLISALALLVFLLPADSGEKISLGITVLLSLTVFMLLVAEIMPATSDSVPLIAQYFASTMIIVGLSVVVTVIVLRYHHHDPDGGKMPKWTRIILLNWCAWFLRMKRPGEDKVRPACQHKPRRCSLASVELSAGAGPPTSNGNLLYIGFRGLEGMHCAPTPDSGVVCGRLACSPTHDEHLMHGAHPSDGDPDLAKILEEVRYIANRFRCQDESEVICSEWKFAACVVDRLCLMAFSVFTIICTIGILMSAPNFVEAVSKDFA

Substance: ^125I-α—Bungarotoxin [^125I-α-BTX]
- Kd: 1.67 nM
